Experimental data: ChEMBL document CHEMBL1201862, “PubChem BioAssay data set” (2004)
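Each compound was tested at five concentrations against cells in 96-well plates for 48 hours. GI50 is the concentration that inhibits growth by half.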 The source made the active and inactive calls. Cut-off read from the data, not from the text of the source: active = GI50 up to about 1.1 µM and inactive = higher.

Columns and labels:
Experiment in all cases: inhibition of tumour cell growth, NCI panel, 48 h
SF-539 = tested on: SF-539
UACC-62 = tested on: UACC-62
NCI-H522 = tested on: NCI-H522
NCI-H460 = tested on: NCI-H460
HCT-116 = tested on: HCT-116
UACC-257 = tested on: UACC-257
SF-295 = tested on: SF-295
PC-3 = tested on: PC-3
DU-145 = tested on: DU-145
U-251 = tested on: U-251
IGROV-1 = tested on: IGROV-1
M14 = tested on: M14
UO-31 = tested on: UO-31
BT-549 = tested on: BT-549
ACHN = tested on: ACHN
MOLT-4 = tested on: MOLT-4
786-0 = tested on: 786-0
Malme-3M = tested on: Malme-3M
EKVX = tested on: EKVX
TK-10 = tested on: TK-10
T47D = tested on: T47D
SW-620 = tested on: SW-620
LOX IMVI = tested on: LOX IMVI
SK-OV-3 = tested on: SK-OV-3
CAKI-1 = tested on: CAKI-1
CCRF-CEM = tested on: CCRF-CEM
SNB-19 = tested on: SNB-19
MDA-MB-231 = tested on: MDA-MB-231
SNB-75 = tested on: SNB-75
SK-MEL-2 = tested on: SK-MEL-2
HCT-15 = tested on: HCT-15
HCC 2998 = tested on: HCC 2998
RXF 393 = tested on: RXF 393
SN12C = tested on: SN12C
OVCAR-5 = tested on: OVCAR-5
MCF7 = tested on: MCF7
COLO 205 = tested on: COLO 205
SR = tested on: SR
HOP-92 = tested on: HOP-92
NCI/ADR-RES = tested on: NCI/ADR-RES
HOP-62 = tested on: HOP-62
A498 = tested on: A498
NCI-H23 = tested on: NCI-H23
A549 = tested on: A549
MDA-MB-435 = tested on: MDA-MB-435
K562 = tested on: K562
OVCAR-3 = tested on: OVCAR-3
SK-MEL-28 = tested on: SK-MEL-28
SF-268 = tested on: SF-268
NCI-H226 = tested on: NCI-H226
OVCAR-8 = tested on: OVCAR-8
KM12 = tested on: KM12
MDA-N = tested on: MDA-N
RPMI-8226 = tested on: RPMI-8226
HL-60 = tested on: HL-60
Hs-578T = tested on: Hs-578T
HT-29 = tested on: HT-29
OVCAR-4 = tested on: OVCAR-4
SK-MEL-5 = tested on: SK-MEL-5

**Q.** With `Nc1nc(N)nc(-c2cnccn2)n1` as the molecule, how does the GI50 (SF-539) read?
**A.** > 100 µM (inactive)

**Q.** What about the GI50 (UACC-62) of the same molecule?
**A.** > 100 µM (inactive)

**Q.** What about the GI50 (NCI-H522) of the same molecule?
**A.** > 100 µM (inactive)

**Q.** And the GI50 (NCI-H460)?
**A.** > 100 µM (inactive)

**Q.** And the GI50 (HCT-116)?
**A.** > 100 µM (inactive)

**Q.** What about the GI50 (UACC-257) of the same molecule?
**A.** > 100 µM (inactive)

**Q.** And the GI50 (SF-295)?
**A.** > 100 µM (inactive)

**Q.** And the GI50 (PC-3)?
**A.** > 100 µM (inactive)

**Q.** What about the GI50 (DU-145) of the same molecule?
**A.** > 100 µM (inactive)

**Q.** What about the GI50 (U-251) of the same molecule?
**A.** > 100 µM (inactive)

**Q.** What about the GI50 (IGROV-1) of the same molecule?
**A.** > 100 µM (inactive)

**Q.** And the GI50 (M14)?
**A.** > 100 µM (inactive)

**Q.** What about the GI50 (UO-31) of the same molecule?
**A.** > 100 µM (inactive)

**Q.** And the GI50 (BT-549)?
**A.** > 100 µM (inactive)

**Q.** What about the GI50 (ACHN) of the same molecule?
**A.** > 100 µM (inactive)

**Q.** And the GI50 (MOLT-4)?
**A.** > 100 µM (inactive)

**Q.** And the GI50 (786-0)?
**A.** > 100 µM (inactive)

**Q.** And the GI50 (Malme-3M)?
**A.** > 100 µM (inactive)

**Q.** And the GI50 (EKVX)?
**A.** > 100 µM (inactive)

**Q.** And the GI50 (TK-10)?
**A.** > 100 µM (inactive)

**Q.** What about the GI50 (T47D) of the same molecule?
**A.** > 100 µM (inactive)

**Q.** What about the GI50 (SW-620) of the same molecule?
**A.** > 100 µM (inactive)

**Q.** And the GI50 (LOX IMVI)?
**A.** > 100 µM (inactive)

**Q.** What about the GI50 (SK-OV-3) of the same molecule?
**A.** > 100 µM (inactive)

**Q.** What about the GI50 (CAKI-1) of the same molecule?
**A.** > 100 µM (inactive)

**Q.** And the GI50 (CCRF-CEM)?
**A.** > 100 µM (inactive)

**Q.** And the GI50 (SNB-19)?
**A.** > 100 µM (inactive)

**Q.** What about the GI50 (MDA-MB-231) of the same molecule?
**A.** 53 µM (inactive)

**Q.** What about the GI50 (SNB-75) of the same molecule?
**A.** > 100 µM (inactive)

**Q.** What about the GI50 (SK-MEL-2) of the same molecule?
**A.** > 100 µM (inactive)

**Q.** What about the GI50 (HCT-15) of the same molecule?
**A.** > 100 µM

**Q.** And the GI50 (HCC 2998)?
**A.** > 100 µM (inactive)

**Q.** What about the GI50 (RXF 393) of the same molecule?
**A.** > 100 µM (inactive)

**Q.** What about the GI50 (SN12C) of the same molecule?
**A.** > 100 µM (inactive)

**Q.** And the GI50 (OVCAR-5)?
**A.** 57.1 µM (inactive)

**Q.** And the GI50 (MCF7)?
**A.** > 100 µM (inactive)

**Q.** And the GI50 (COLO 205)?
**A.** > 100 µM (inactive)

**Q.** What about the GI50 (SR) of the same molecule?
**A.** > 100 µM (inactive)

**Q.** What about the GI50 (HOP-92) of the same molecule?
**A.** > 100 µM (inactive)

**Q.** What about the GI50 (NCI/ADR-RES) of the same molecule?
**A.** > 100 µM (inactive)

**Q.** And the GI50 (HOP-62)?
**A.** > 100 µM (inactive)

**Q.** And the GI50 (A498)?
**A.** > 100 µM (inactive)

**Q.** And the GI50 (NCI-H23)?
**A.** > 100 µM (inactive)

**Q.** And the GI50 (A549)?
**A.** > 100 µM (inactive)

**Q.** And the GI50 (MDA-MB-435)?
**A.** > 100 µM (inactive)

**Q.** And the GI50 (K562)?
**A.** > 100 µM (inactive)

**Q.** What about the GI50 (OVCAR-3) of the same molecule?
**A.** > 100 µM (inactive)

**Q.** And the GI50 (SK-MEL-28)?
**A.** > 100 µM (inactive)

**Q.** What about the GI50 (SF-268) of the same molecule?
**A.** > 100 µM (inactive)

**Q.** And the GI50 (NCI-H226)?
**A.** > 100 µM (inactive)

**Q.** What about the GI50 (OVCAR-8) of the same molecule?
**A.** > 100 µM (inactive)

**Q.** And the GI50 (KM12)?
**A.** > 100 µM (inactive)

**Q.** How did the GI50 (SF-539) turn out when `CCCCCCCCCC(O)CC(=O)c1c(O)cccc1O` (configuration not stated) was run?
**A.** 20.3 µM (inactive)

**Q.** What about the GI50 (NCI-H522) of the same molecule?
**A.** 19 µM (inactive)

**Q.** What about the GI50 (HCT-116) of the same molecule?
**A.** 20.1 µM (inactive)

**Q.** What about the GI50 (UACC-257) of the same molecule?
**A.** 19.5 µM (inactive)

**Q.** And the GI50 (MDA-N)?
**A.** 22 µM (inactive)

**Q.** And the GI50 (SF-295)?
**A.** 19.4 µM (inactive)

**Q.** What about the GI50 (PC-3) of the same molecule?
**A.** 18.7 µM (inactive)

**Q.** What about the GI50 (DU-145) of the same molecule?
**A.** 38 µM (inactive)

**Q.** And the GI50 (U-251)?
**A.** 36.7 µM (inactive)

**Q.** What about the GI50 (IGROV-1) of the same molecule?
**A.** 18.8 µM (inactive)

**Q.** And the GI50 (M14)?
**A.** 20.1 µM (inactive)

**Q.** What about the GI50 (UO-31) of the same molecule?
**A.** 19.3 µM (inactive)

**Q.** What about the GI50 (RPMI-8226) of the same molecule?
**A.** 20.6 µM (inactive)

**Q.** What about the GI50 (ACHN) of the same molecule?
**A.** 24.1 µM (inactive)

**Q.** What about the GI50 (MOLT-4) of the same molecule?
**A.** 19.5 µM (inactive)

**Q.** What about the GI50 (786-0) of the same molecule?
**A.** 19.1 µM (inactive)

**Q.** What about the GI50 (Malme-3M) of the same molecule?
**A.** 16 µM (inactive)

**Q.** What about the GI50 (EKVX) of the same molecule?
**A.** 21.9 µM (inactive)

**Q.** What about the GI50 (TK-10) of the same molecule?
**A.** 21.8 µM (inactive)

**Q.** And the GI50 (T47D)?
**A.** 25.2 µM (inactive)

**Q.** And the GI50 (SW-620)?
**A.** 39.5 µM (inactive)

**Q.** And the GI50 (LOX IMVI)?
**A.** 20.4 µM (inactive)

**Q.** What about the GI50 (SK-OV-3) of the same molecule?
**A.** 20 µM (inactive)

**Q.** What about the GI50 (CAKI-1) of the same molecule?
**A.** 21.7 µM (inactive)

**Q.** And the GI50 (CCRF-CEM)?
**A.** 46.3 µM (inactive)

**Q.** And the GI50 (SNB-19)?
**A.** 29.9 µM (inactive)

**Q.** What about the GI50 (MDA-MB-231) of the same molecule?
**A.** 21.4 µM (inactive)

**Q.** What about the GI50 (SNB-75) of the same molecule?
**A.** 18.7 µM (inactive)

**Q.** What about the GI50 (SK-MEL-2) of the same molecule?
**A.** 18.4 µM (inactive)

**Q.** And the GI50 (HCT-15)?
**A.** 18.2 µM

**Q.** And the GI50 (HCC 2998)?
**A.** 12.4 µM (inactive)

**Q.** And the GI50 (RXF 393)?
**A.** 16.9 µM (inactive)

**Q.** What about the GI50 (SN12C) of the same molecule?
**A.** 31.3 µM (inactive)

**Q.** What about the GI50 (OVCAR-5) of the same molecule?
**A.** 18.7 µM (inactive)

**Q.** And the GI50 (HL-60)?
**A.** 22.2 µM (inactive)

**Q.** And the GI50 (MCF7)?
**A.** 26.8 µM (inactive)

**Q.** And the GI50 (COLO 205)?
**A.** 30.1 µM (inactive)

**Q.** And the GI50 (HOP-92)?
**A.** 25.4 µM (inactive)

**Q.** What about the GI50 (Hs-578T) of the same molecule?
**A.** 18.6 µM (inactive)

**Q.** What about the GI50 (HT-29) of the same molecule?
**A.** 19.5 µM (inactive)

**Q.** What about the GI50 (OVCAR-4) of the same molecule?
**A.** 16.7 µM (inactive)

**Q.** And the GI50 (NCI/ADR-RES)?
**A.** 18.4 µM (inactive)

**Q.** What about the GI50 (HOP-62) of the same molecule?
**A.** 16 µM (inactive)

**Q.** And the GI50 (A498)?
**A.** 30.5 µM (inactive)

**Q.** And the GI50 (NCI-H23)?
**A.** 22 µM (inactive)

**Q.** And the GI50 (SK-MEL-5)?
**A.** 19 µM (inactive)

**Q.** And the GI50 (A549)?
**A.** 23.6 µM (inactive)

**Q.** And the GI50 (MDA-MB-435)?
**A.** 25.9 µM (inactive)

**Q.** What about the GI50 (K562) of the same molecule?
**A.** 22.1 µM (inactive)

**Q.** And the GI50 (OVCAR-3)?
**A.** 21.9 µM (inactive)

**Q.** What about the GI50 (SK-MEL-28) of the same molecule?
**A.** 41.5 µM (inactive)

**Q.** What about the GI50 (SF-268) of the same molecule?
**A.** 17.7 µM (inactive)

**Q.** And the GI50 (NCI-H226)?
**A.** 17.4 µM (inactive)

**Q.** And the GI50 (OVCAR-8)?
**A.** 18.8 µM (inactive)

**Q.** And the GI50 (KM12)?
**A.** 19.3 µM (inactive)
